What all share (format): cell-based
For one assay, the system named is Staph. aureus C-5113. Briefly: MIC by agar dilution, Staph. aureus C-5113. As to conditions: Staphylococcus aureus, C5113, 17 h, Mueller-Hinton agar, read-out: Minimal Inhibitory Concentration (MIC). The gist of the method:
(§1)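 Two-fold dilutions of compound were dispersed in Mueller-Hinton agar, inoculated with test strain at 10^6 CFU per ml, and incubated at 35°-37° C. for 17±1 hours; MIC read from agar dilution.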

A further assay relates to Prov. stuartii IFO 12930. Briefly: MIC by agar dilution, Prov. stuartii IFO 12930. Conditions: Providencia stuartii, IFO12930, 17 h, Mueller-Hinton agar, read-out: Minimal Inhibitory Concentration (MIC). In outline: as §1
For orientation: Agar dilution tests growth on a series of plates holding different concentrations.

The next assay deals with E. coli NIHJ JC-2. Briefly: MIC by agar dilution, E. coli NIHJ JC-2. Conditions: Escherichia coli, NIHJJC2, 17 h; E. coli NIHJ JC-2; agar dilution, Mueller-Hinton agar; read-out: Minimal Inhibitory Concentration (MIC). In outline: as §1
A further assay has as its system Ent. aerogenes IFO 12979. Briefly: MIC by agar dilution, Ent. aerogenes IFO 12979. Conditions: Klebsiella aerogenes, IFO12979, 17 h, Mueller-Hinton agar, read-out: Minimal Inhibitory Concentration (MIC). In outline: as §1
The subject of the next assay is P. vulgaris NCTC 8313. Briefly: MIC by agar dilution, P. vulgaris NCTC 8313. Conditions: Proteus vulgaris, NCTC8313, 17 h; P. vulgaris NCTC 8313; agar dilution, Mueller-Hinton agar; read-out: Minimal Inhibitory Concentration (MIC). In outline: as §1
The test system of assay [1] is S. epidermidis ATCC 12228. The experiment in a line: MIC by agar dilution, S. epidermidis ATCC 12228. As to conditions: Staphylococcus epidermidis, ATCC12228, 17 h; S. epidermidis ATCC 12228; agar dilution, Mueller-Hinton agar; read-out: Minimal Inhibitory Concentration (MIC). In outline: as §1
A further assay deals with Staph. aureus C-57. The experiment in a line: MIC by agar dilution, Staph. aureus C-57. As to conditions: Staphylococcus aureus, C57, 17 h, Mueller-Hinton agar, read-out: Minimal Inhibitory Concentration (MIC). In outline:
as §1

In a further assay the test system is K. pneumoniae NCTC 9632. Briefly: MIC by agar dilution, K. pneumoniae NCTC 9632. As to conditions: Klebsiella pneumoniae, NCTC9632, 17 h; K. pneumoniae NCTC 9632; agar dilution, Mueller-Hinton agar; read-out: Minimal Inhibitory Concentration (MIC). In outline: as §1
In a further assay the test system is Staph. aureus Smith. Briefly: MIC by agar dilution, Staph. aureus Smith. As to conditions: Staphylococcus aureus, 17 h, Mueller-Hinton agar, read-out: Minimal Inhibitory Concentration (MIC). In outline:
as §1

For the next assay, the system named is M. morganii DY-1. The experiment in a line: MIC by agar dilution, M. morganii DY-1. As to conditions: Morganella morganii, DY1, 17 h; M. morganii DY-1; agar dilution, Mueller-Hinton agar; read-out: Minimal Inhibitory Concentration (MIC). The gist of the method: as §1
For the next assay, the system named is E. coli DY-1. The experiment in a line: MIC by agar dilution, E. coli DY-1. Conditions: Escherichia coli, DY1, 17 h; E. coli DY-1; agar dilution, Mueller-Hinton agar; read-out: Minimal Inhibitory Concentration (MIC). In outline: as §1
Assay [2] concerns Ps. aeruginosa ATCC 10145. The experiment in a line: MIC by agar dilution, Ps. aeruginosa ATCC 10145. As to conditions: Pseudomonas aeruginosa, ATCC10145, 17 h, Mueller-Hinton agar, read-out: Minimal Inhibitory Concentration (MIC). In outline:
as §1

In assay [3] the test system is Ser. marcescens IFO 12648. The experiment in a line: MIC by agar dilution, Ser. marcescens IFO 12648. As to conditions: Serratia marcescens, IFO12648, 17 h; Ser. marcescens IFO 12648; agar dilution, Mueller-Hinton agar; read-out: Minimal Inhibitory Concentration (MIC). The gist of the method:
as §1

A further assay concerns Staph. aureus C-5216. The experiment in a line: MIC by agar dilution, Staph. aureus C-5216. As to conditions: Staphylococcus aureus, C5216, 17 h, Mueller-Hinton agar, read-out: Minimal Inhibitory Concentration (MIC). The gist of the method:
as §1

In assay [4] the test system is Ps. aeruginosa NCTC 10490. The experiment in a line: MIC by agar dilution, Ps. aeruginosa NCTC 10490. Conditions: Pseudomonas aeruginosa, NCTC10490, 17 h, Mueller-Hinton agar, read-out: Minimal Inhibitory Concentration (MIC). The gist of the method: as §1
The subject of a further assay is Ent. cloacae IFO 13535. The experiment in a line: MIC by agar dilution, Ent. cloacae IFO 13535. As to conditions: Enterobacter cloacae, IFO13535, 17 h; Ent. cloacae IFO 13535; agar dilution, Mueller-Hinton agar; read-out: Minimal Inhibitory Concentration (MIC). In outline:
as §1

The test system of another assay is E. coli No. 29. The experiment in a line: MIC by agar dilution, E. coli No. 29. Conditions: Escherichia coli, 17 h; E. coli No. 29; agar dilution, Mueller-Hinton agar; read-out: Minimal Inhibitory Concentration (MIC). The gist of the method:
as §1

The test system of another assay is Ps. aeruginosa DY-2. Briefly: MIC by agar dilution, Ps. aeruginosa DY-2. Conditions: Pseudomonas aeruginosa, DY2, 17 h; Ps. aeruginosa DY-2; agar dilution, Mueller-Hinton agar; read-out: Minimal Inhibitory Concentration (MIC). In outline:
as §1

A further assay relates to B. subtilis ATCC 6633. Briefly: MIC by agar dilution, B. subtilis ATCC 6633. Conditions: Bacillus subtilis, ATCC6633, 17 h; B. subtilis ATCC 6633; agar dilution, Mueller-Hinton agar; read-out: Minimal Inhibitory Concentration (MIC). The gist of the method: as §1
Another assay has as its system Staph. aureus ATCC 6538P. The experiment in a line: MIC by agar dilution, Staph. aureus ATCC 6538P. As to conditions: Staphylococcus aureus, ATCC6538P, 17 h; Staph. aureus ATCC 6538P; agar dilution, Mueller-Hinton agar; read-out: Minimal Inhibitory Concentration (MIC). The gist of the method:
as §1

Converted amounts (≈) assume the structure as drawn.

On to `CON=C(C(=O)NC1C(=O)N2C(C(=O)[O-])=C(C[n+]3ccn4c(SCCO)ccc4c3)CSC12)c1csc(N)n1` (stereo not drawn) [Ex. 8, 7-β-[(Z)-2-(2-aminothiazol-4-yl)-2-methoxyiminoacetamido]-3-[6-(2-hydroxyethylthio)pyrrolo[1,2-a]pyrazinium-2-yl]methyl-3-cephem-4-carboxylate], for which the MIC in the assay with Staph. aureus C-5113 is 0.39 µg/mL (≈ 0.661 µM); in the assay with Prov. stuartii IFO 12930, at most 6 ng/mL; with E. coli NIHJ JC-2 it was 0.012 µg/mL (≈ 0.0203 µM); with Ent. aerogenes IFO 12979 it was 0.012 µg/mL (≈ 0.0203 µM); in the assay on P. vulgaris NCTC 8313 it was 0.012 µg/mL (≈ 0.0203 µM); in assay [1], 0.1 µg/mL (≈ 0.17 µM). In addition, the MIC was 25 µg/mL (≈ 42.4 µM) with Staph. aureus C-57; 0.012 µg/mL (≈ 0.0203 µM) with K. pneumoniae NCTC 9632; 0.2 µg/mL (≈ 0.339 µM) in the assay on Staph. aureus Smith; 0.025 µg/mL (≈ 0.0424 µM) in the assay with M. morganii DY-1; at most 6 ng/mL with E. coli DY-1; 0.78 µg/mL (≈ 1.32 µM) in assay [2]. In addition, the MIC in assay [3] was 0.012 µg/mL (≈ 0.0203 µM); in the assay on Staph. aureus C-5216, 0.78 µg/mL (≈ 1.32 µM); in assay [4] it was 0.2 µg/mL (≈ 0.339 µM); with Ent. cloacae IFO 13535, 1.56 µg/mL (≈ 2.65 µM); in the assay on E. coli No. 29, at most 0.006 µg/mL; with Ps. aeruginosa DY-2, 3.13 µg/mL (≈ 5.31 µM). Further, the MIC in the assay on B. subtilis ATCC 6633 and in the assay on Staph. aureus ATCC 6538P was 0.1 µg/mL (≈ 0.17 µM) throughout.

Take `CO/N=C(\C(=O)N[C@@H]1C(=O)N2C(C(=O)[O-])=C(C[n+]3ccn4c(CO)ccc4c3)CS[C@H]12)c1nc(N)sc1Cl` [Ex. 49, 7-β-[(Z)-2-(2-amino-5-chlorothiazol-4-yl)-2-methoxyiminoacetamido]-3-(6-hydroxymethylpyrrolo[1,2-a]-pyrazinium-2-yl)methyl-3-cephem-4-carboxylate]: the MIC in the assay on Staph. aureus C-5113 is 0.39 µg/mL (≈ 0.675 µM); in the assay with Prov. stuartii IFO 12930, at most 6 ng/mL; in the assay with E. coli NIHJ JC-2 it was 0.1 µg/mL (≈ 0.173 µM); in the assay with Ent. aerogenes IFO 12979 it was 0.05 µg/mL (≈ 0.0865 µM); with P. vulgaris NCTC 8313, 0.025 µg/mL (≈ 0.0433 µM); in assay [1], 0.012 µg/mL (≈ 0.0208 µM). In addition, the MIC with Staph. aureus C-57 was 1.56 µg/mL (≈ 2.7 µM); in the assay on K. pneumoniae NCTC 9632 it was 0.1 µg/mL (≈ 0.173 µM); in the assay on Staph. aureus Smith, 0.39 µg/mL (≈ 0.675 µM); in the assay on M. morganii DY-1 it was 0.1 µg/mL (≈ 0.173 µM); in the assay with E. coli DY-1 it was at most 6 ng/mL; in [2], 1.56 µg/mL (≈ 2.7 µM). Further, the MIC was 0.1 µg/mL (≈ 0.173 µM) in [3]; 0.78 µg/mL (≈ 1.35 µM) with Staph. aureus C-5216; 0.2 µg/mL (≈ 0.346 µM) in assay [4]; 0.39 µg/mL (≈ 0.675 µM) in the assay on Ent. cloacae IFO 13535; 0.025 µg/mL (≈ 0.0433 µM) in the assay with E. coli No. 29; 3.13 µg/mL (≈ 5.41 µM) with Ps. aeruginosa DY-2. Further, the figures for the MIC in the assay with B. subtilis ATCC 6633 and in the assay with Staph. aureus ATCC 6538P were 0.1 µg/mL (≈ 0.173 µM) and 0.2 µg/mL (≈ 0.346 µM), respectively.

With `CON=C(C(=O)NC1C(=O)N2C(C(=O)[O-])=C(C[n+]3ccn4c(C(C)=O)ccc4c3)CSC12)c1csc(N)n1` (stereo not drawn) [Ex. 18, 7-β-[(Z)-2-(2-aminothiazol-4-yl)-2-methoxyiminoacetamido]-3-(6-acetylpyrrolo[1,2-a]pyrazinium-2-yl)methyl-3-cephem-4-carboxylate], the MIC in the assay with Staph. aureus C-5113 was determined as 0.78 µg/mL (≈ 1.4 µM); in the assay on Prov. stuartii IFO 12930, 12 ng/mL (≈ 0.0216 µM); in the assay with E. coli NIHJ JC-2, 0.012 µg/mL (≈ 0.0216 µM); in the assay with Ent. aerogenes IFO 12979 it was 0.012 µg/mL (≈ 0.0216 µM); with P. vulgaris NCTC 8313, 0.012 µg/mL (≈ 0.0216 µM); in [1] it was 0.05 µg/mL (≈ 0.09 µM). For the same compound, the MIC was 25 µg/mL (≈ 45 µM) in the assay with Staph. aureus C-57; 0.025 µg/mL (≈ 0.045 µM) in the assay with K. pneumoniae NCTC 9632; 0.78 µg/mL (≈ 1.4 µM) with Staph. aureus Smith; 0.025 µg/mL (≈ 0.045 µM) in the assay with M. morganii DY-1; 12 ng/mL (≈ 0.0216 µM) in the assay with E. coli DY-1; 1.56 µg/mL (≈ 2.81 µM) in [2]. Also, the MIC stood at 0.012 µg/mL (≈ 0.0216 µM) in assay [3]; 1.56 µg/mL (≈ 2.81 µM) with Staph. aureus C-5216; 0.2 µg/mL (≈ 0.36 µM) in assay [4]; 0.1 µg/mL (≈ 0.18 µM) in the assay with Ent. cloacae IFO 13535; 0.025 µg/mL (≈ 0.045 µM) in the assay with E. coli No. 29; 6.25 µg/mL (≈ 11.2 µM) in the assay with Ps. aeruginosa DY-2. Also, the MIC with B. subtilis ATCC 6633 and in the assay with Staph. aureus ATCC 6538P was 0.2 µg/mL (≈ 0.36 µM) in each case.

(Values after patent US5593984A, “Cephalosporin derivatives” (Yuhan Corporation, priority 1992, dated 1997).)
